Columns and labels:
[1] = tested on: latent HIV in JLat 10.6-GFP, 2D10 and 5A8 cells; test: HIV reactivation using latent reporter cell lines (GFP expression by flow cytometry); format: cell-based, human
Source text: The experiment analyzed the ability of DEB10-1143 at reactivating latent HIV using three well-characterized latent T cell lines—JLat 10.6-GFP, 2D10 and 5A8 (Jordan A, Bisgrove D, Verdin E (2003) EMBO J 22(8): 1868-1877. doi: 10.1093/emboj/cdg188. PMID: 12682019; Sakane N, Kwon HS, Pagans S, Kaehlcke K, Mizusawa Y, Kamada M, et al. (2011) PLoS Pathog 7(8): e1002184. PMID: 21876670; Pearson R, Kim Y K, Hokello J, Lassen K, Friedman J, Tyagi M, et al. (2008) J Virol 82(24): 12291-12303. PMID: 18829756). These cell lines contain part of the HIV genome and the GFP reporter gene and are unable to produce infective HIV particles. Drug titration and kinetic studies were conducted. Debio-1143 was tested alone or in combination with the current antiretroviral therapy (ART), consisting of 20 μM tenofovir disoproxil fumarate [TDF], 10 μM emtricitabine [FTC] and 1 μM raltegravir [RAL]. ART and DEB10-1143 were added simultaneously to cells.
Method: Cells (100,000 cells/100 μL) were treated in triplicate for 0 and 72 h with increasing concentrations of DEB10-1143 (0 to 20.5 μM) used alone or in combination with ART (see above). ART and DEB10-1143 were added simultaneously to cells. Cells were analyzed for GFP expression by flow cytometry at the indicated time points counting all cells per replicate, and reported as % GFP+cells.

[2] = tested on: HIV-infected resting CD4+ T cells (rCD4); test: Lysis of HIV-infected resting CD4+ T cells (rCD4) by CD8+ T cells and NK cells (LDH activity); format: cell-based, human; conditions: 0, 1 and 10 μM, mono- or co-cultures of rCD4, CD4+, 24 and 48 h
Description: It was investigated whether the Debio-1143-induced reversal of HIV-1 latency, by restoring HIV-1 protein production in rCD4, would permit viral peptide exposure with MHC on infected rCD4+ T cells and allow recognition and lysis by CD8+ T cells and/or NK cells.
Method: Human CD4+ T cells, CD8+ T cells and NK cells were isolated following manufacturer's instruction (beads coated with specific antibodies) from one blood donor (500 mL). Ninety percent of CD4+ T cells were infected with HIV-1 (JR-CSF) (1 μg of p24), incubated for 4 days to allow establishment of infection, and then treated with ART for 3 days. Suppression of replication was verified by p24 ELISA in supernatants. rCD4 were then isolated following manufacturer's instruction. Infected and ART-treated rCD4 were mixed with uninfected CD4+ T cells, CD8+ T cells and NK cells a 1:1 ratio (100,000 cells) for 24 and 48 in triplicate. Mono-culture of each cell populations were used as controls. DMSO or Debio-1143 (0, 1 and 10 μM) were added to mono- or co-cultures for 24 and 48 h. Cell killing was quantified by LDH activity.

[3] = tested on: latent HIV in resting CD4+ T-lymphocytes; test: HIV-1 reactivation in resting CD4+ T cells from PBMCs of three ART-treated HIV patients (HIV RNA in supernatant); format: cell-based, human
Source text: The experiments of this example analyzed the ability of IAPa, ICIs, or IAPa/ICI combinations at reactivating latent HIV in resting CD4+ T-lymphocytes isolated from peripheral blood monocytic cells (PBMCs) derived from HIV patients currently under ART.
Method: Resting CD4+ T cells were isolated from PBMCs of three ART-treated HIV patients by negative selection and magnetic separation (Easysep Mouse/Human Chimera Isolation Kits from […] technologies). Isolated resting CD4+ T cells (50,000 cells/50 μL) were treated in duplicate for 48h with different IAPa (1 μM) or ICI (10 μg/ml) in monotherapy, or the IAPa/ICI combinations. Amounts of virions released from cells were quantified at the indicated time points by quantifying HIV RNA levels (HIV RNA copies/mL) in supernatant of cell culture using one-step reverse transcriptase quantitative real-time PCR (ABI custom TaqMan Assays-by-Design) according to the manufacturer's instructions. Primers were 5-[…]-3 and 5-[…]-3, and MGB probe 5-FAM-[…]-Q-3, where FAM is 6-carboxyfluorescein.
(§1) The experiment was carried out using the same agents as described above for Example 8.1 (with the exception that no birinapant was used).

[4] = tested on: latent HIV-1 in resting CD4+ T cells; test: Ex vivo HIV-1 reactivation in human resting CD4+ T cells from ART-treated HIV-1-infected humanized BLT mice (HIV RNA in supernatant); format: cell-based
Description: The efficacy of IAPa, ICI or IAPa/ICI combinations in reversing HIV-1 latency was tested in resting CD4+ T cells derived from ART-treated HIV-1-infected humanized BLT mice.
Human resting CD4+ T cells from ten mice were isolated from blood, thymic organoid, lung, spleen, bone marrow, lymph nodes and liver. Isolated human resting CD4+ T cells were pooled, counted, split and treated in duplicate for 48 h with different IAPa (1 μM) or ICI (10 μg/ml) in monotherapy, or the IAPa/ICI combinations. Amounts of virions released from cells were quantified at the indicated time points by quantifying HIV RNA levels (HIV RNA copies/mL) in supernatant of cell culture using one-step reverse transcriptase quantitative real-time PCR (ABI custom TaqMan Assays-by-Design) according to the manufacturer's instructions. Primers were 5-[…]-3 and 5-[…]-3, and MGB probe 5-FAM-[…]-Q-3, where FAM is 6-carboxyfluorescein.
as §1

[5] = IAPa 1 μM monotherapy (0.1% DMSO, no ICI), 48 h
[6] = IAPa 1 μM with Control IgG1, 48 h
[7] = IAPa 1 μM with Control IgG2, 48 h

For CN[C@@H](C)C(=O)N[C@H]1CN(C(=O)CC(C)C)CC[C@H]2CC[C@@H](C(=O)NC(c3ccccc3)c3ccccc3)N2C1=O [Debio 1143, (5S,8S,10aR)-N-benzhydryl-5-((S)-2-(methylamino)propanamido)-3-(3-methylbutanoyl)-6-oxodecahydropyrrolo[1,2-a][1,5]diazocine-8-carboxamide], which “degree of HIV reactivation, comparison of cell lines” value ([1]; 2D10 cells compared to the two other cell lines) is on record?
Its value is “shows the best degree of HIV reactivation”.

And the “influence of ART on the degree of latency reversal” value ([1]; in combination with ART (20 μM TDF, 10 μM FTC, 1 μM RAL), added simultaneously)?
The value was “does not influence”.

And the “HIV reactivation (% GFP+ cells)” value ([1]; single agent, 0 to 20.5 μM, 72 h, JLat 10.6-GFP, 2D10 and 5A8 cells)?
The value was “possesses the capacity of activating latent HIV”.

And the “cell killing (LDH activity)” value [2]?
Its value is “Low cell death was observed in all mono- and co-cultures except for the rCD4:CD8+ T cells co-culture”.

What about the “latency reversal class (HIV RNA copies/ml in supernatant)” value (“latency reversal class” for short) [3, 5] of the same molecule?
Its value is 1 (Between 501 and 1000 RNA copies/ml were classified as “1”).

And the “latency reversal class” value [3, 6]?
Its value is 1 (Between 501 and 1000 RNA copies/ml were classified as “1”).

What about the “latency reversal class” value [3, 7] of the same molecule?
Its value is 1 (Between 501 and 1000 RNA copies/ml were classified as “1”).

What about the “latency reversal class” value [4, 5] of the same molecule?
The value was 2 (Between 2501 and 5000 RNA copies/ml were classified as “2”).

What about the “latency reversal class” value [4, 6] of the same molecule?
Its value is 2 (Between 2501 and 5000 RNA copies/ml were classified as “2”).

And the “latency reversal class” value [4, 7]?
Its value is 2 (Between 2501 and 5000 RNA copies/ml were classified as “2”).

— US20220016079A1, “COMBINATION TREATMENT OF HIV INFECTIONS” (priority 2018, published 2022)
